#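 The compound was tested at five concentrations on cells cultured in 96-well plates, with a 48-hour exposure period. Abbreviation: GI50, concentration required for 50% inhibition of growth.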 The source made the active and inactive calls. No stated cut-off is given here; in the data, active = GI50 up to about 1.1 µM and inactive = higher.
# Tests used:
# Test in all cases: NCI tumour cell line growth inhibition, 48 h
# [1] = test system: COLO 205
# [2] = test system: EKVX
# [3] = test system: HCT-116
# [4] = test system: HOP-62
# [5] = test system: HOP-92
# [6] = test system: IGROV-1
# [7] = test system: KM12
# [8] = test system: MCF7
# [9] = test system: MOLT-4
# [10] = test system: NCI-H23
# [11] = test system: OVCAR-4
# [12] = test system: RPMI-8226
# [13] = test system: SK-MEL-28
# [14] = test system: SK-MEL-2
# [15] = test system: SK-MEL-5
# [16] = test system: SN12C
# [17] = test system: SNB-19
# [18] = test system: U-251
# [19] = test system: 786-0
# [20] = test system: M14
Structure (SMILES),GI50 [1],GI50 [2],GI50 [3],GI50 [4],GI50 [5],GI50 [6],GI50 [7],GI50 [8],GI50 [9],GI50 [10],GI50 [11],GI50 [12],GI50 [13],GI50 [14],GI50 [15],GI50 [16],GI50 [17],GI50 [18],GI50 [19],GI50 [20]
CSc1nc2c(ncn2C2OC(CO)C(O)C(O)C2O)c(=O)n1C (stereo not given),> 100 µM (inactive),> 100 µM (inactive),> 100 µM (inactive),> 100 µM (inactive),> 100 µM (inactive),> 100 µM (inactive),> 100 µM (inactive),> 100 µM (inactive),> 100 µM (inactive),> 100 µM (inactive),> 100 µM (inactive),> 100 µM (inactive),> 100 µM (inactive),> 100 µM (inactive),> 100 µM (inactive),> 100 µM (inactive),> 100 µM (inactive),> 100 µM (inactive),–,–
C=C1CC(Cn2cc(C)c(=O)[nH]c2=O)(c2ccc(-c3ccccc3)cc2)OC1=O (stereo not given),0.984 µM (active),6.62 µM (inactive),0.596 µM (active),13.1 µM (inactive),1.95 µM (inactive),1.82 µM (inactive),2.31 µM (inactive),1.51 µM (inactive),0.964 µM (active),1.74 µM (inactive),2.49 µM (inactive),0.385 µM (active),1.78 µM (inactive),1.94 µM (inactive),1.07 µM (active),2.54 µM (inactive),13.8 µM (inactive),10.6 µM (inactive),0.817 µM (active),1.1 µM (active)
C[O+]=C1C=CC(=C2SC(c3ccccc3)(c3ccccc3)c3ccccc32)C=C1.[O-][Cl+3]([O-])([O-])[O-],17.3 µM (inactive),17.8 µM (inactive),10.3 µM (inactive),28 µM (inactive),16.6 µM (inactive),33 µM (inactive),15.7 µM (inactive),25.4 µM (inactive),13.1 µM (inactive),21.1 µM (inactive),14.6 µM (inactive),17.5 µM (inactive),21.1 µM (inactive),15.6 µM (inactive),16.6 µM (inactive),20 µM (inactive),39.8 µM (inactive),22.6 µM (inactive),17.2 µM (inactive),16.1 µM (inactive)
COc1ccc2c(c1)C(=O)CC1c3cnccc3C(=O)N21 (stereo not given),> 100 µM (inactive),> 79.4 µM (inactive),> 73.6 µM (inactive),> 27.8 µM (inactive),> 100 µM (inactive),> 85.1 µM (inactive),> 100 µM (inactive),> 100 µM (inactive),> 100 µM (inactive),> 100 µM (inactive),> 100 µM (inactive),> 92 µM (inactive),> 91.2 µM (inactive),> 100 µM (inactive),> 100 µM (inactive),> 100 µM (inactive),> 72.1 µM (inactive),> 73.5 µM (inactive),> 100 µM (inactive),> 100 µM (inactive)
O=NN1C(c2ccccc2)C2CCCC(C2=O)C1c1ccccc1 (stereo not given),17.5 µM (inactive),28.4 µM (inactive),25.5 µM (inactive),27 µM (inactive),22 µM (inactive),40 µM (inactive),32.5 µM (inactive),20.7 µM (inactive),27.1 µM (inactive),19.7 µM (inactive),23.9 µM (inactive),22.3 µM (inactive),21.7 µM (inactive),20.2 µM (inactive),18.7 µM (inactive),26.2 µM (inactive),42.6 µM (inactive),29.3 µM (inactive),–,–
CN1CCOC1(C)CO (stereo not given),> 100 µM (inactive),> 100 µM (inactive),> 100 µM (inactive),> 100 µM (inactive),> 100 µM (inactive),> 100 µM (inactive),> 100 µM (inactive),> 100 µM (inactive),> 100 µM (inactive),> 100 µM (inactive),> 100 µM (inactive),> 100 µM (inactive),–,> 100 µM (inactive),> 100 µM (inactive),–,> 100 µM (inactive),> 100 µM (inactive),> 100 µM (inactive),> 100 µM (inactive)
CCOC(=O)CC[C@H](NC(=O)N[C@H](C)c1ccccc1)C(=O)OCC,18.7 µM (inactive),> 100 µM (inactive),> 100 µM (inactive),> 100 µM (inactive),22 µM (inactive),20.8 µM (inactive),73.1 µM (inactive),32.7 µM (inactive),20.1 µM (inactive),89.1 µM (inactive),52.1 µM (inactive),41 µM (inactive),20.9 µM (inactive),23.4 µM (inactive),37 µM (inactive),40.6 µM (inactive),> 100 µM (inactive),39.8 µM (inactive),37.9 µM (inactive),14.8 µM (inactive)
CO[C@H]1C=CO[C@@]2(C)Oc3c(C)c(O)c4c(O)c(c(CN5CCN(C)CC5)c(O)c4c3C2=O)NC(=O)/C(C)=C\C=C[C@H](C)[C@H](O)C(C)[C@@H](O)C(C)[C@H](OC(C)=O)[C@@H]1C (stereo not given in full),5.7 µM (inactive),68.5 µM (inactive),13.4 µM (inactive),17.7 µM (inactive),71.4 µM (inactive),33.8 µM (inactive),45.6 µM (inactive),11.1 µM (inactive),5.87 µM (inactive),14.6 µM (inactive),27.5 µM (inactive),4.62 µM (inactive),90.4 µM (inactive),41.8 µM (inactive),24.3 µM (inactive),30.3 µM (inactive),> 100 µM (inactive),32.7 µM (inactive),21.3 µM (inactive),24.2 µM (inactive)
Cc1cc(O)cc(O)c1/N=N/c1ccc([N+](=O)[O-])cc1,30.5 µM (inactive),22.3 µM (inactive),3.51 µM (inactive),> 100 µM (inactive),2.39 µM (inactive),16.1 µM (inactive),22.6 µM (inactive),16.5 µM (inactive),5.3 µM (inactive),17.7 µM (inactive),9.64 µM (inactive),5.22 µM (inactive),16.6 µM (inactive),15.4 µM (inactive),12.6 µM (inactive),5.71 µM (inactive),37.3 µM (inactive),16.7 µM (inactive),–,22.5 µM (inactive)
Cc1cccc(-c2cc(=S)c3cc(N4CCCC4)ccc3[nH]2)c1,> 100 µM (inactive),> 100 µM (inactive),> 100 µM (inactive),> 100 µM (inactive),> 100 µM (inactive),–,> 100 µM (inactive),> 100 µM (inactive),> 100 µM (inactive),–,> 100 µM (inactive),> 100 µM (inactive),> 100 µM (inactive),> 100 µM (inactive),> 100 µM (inactive),> 100 µM (inactive),> 100 µM (inactive),> 100 µM (inactive),> 100 µM (inactive),> 100 µM (inactive)
CCCC1CCC(=C2C(=O)CCC2=O)O1 (stereo not given),> 100 µM (inactive),> 100 µM (inactive),> 100 µM (inactive),> 100 µM (inactive),> 100 µM (inactive),> 100 µM (inactive),> 100 µM (inactive),> 100 µM (inactive),0.849 µM (active),> 100 µM (inactive),> 100 µM (inactive),> 100 µM (inactive),> 100 µM (inactive),> 100 µM (inactive),–,> 100 µM (inactive),> 100 µM (inactive),> 100 µM (inactive),> 100 µM (inactive),> 100 µM (inactive)
CC(NNC(=O)c1cc[n+]([BH2-]C#N)cc1)c1cccc(F)c1 (stereo not given),> 100 µM (inactive),> 100 µM (inactive),> 100 µM (inactive),–,> 100 µM (inactive),> 100 µM (inactive),> 100 µM (inactive),> 100 µM (inactive),> 100 µM (inactive),–,69.8 µM (inactive),> 100 µM (inactive),> 100 µM (inactive),> 100 µM (inactive),94.2 µM (inactive),> 100 µM (inactive),> 100 µM (inactive),> 100 µM (inactive),> 100 µM (inactive),> 100 µM (inactive)
C/C=C1/CN2CC[C@@H]3c4ccccc4N4[C@H](C(=O)OC)[C@H]1C[C@H]2[C@]34/C=C/C1=COC[C@@H]2[C@H]1C[C@H]1c3c(c4ccccc4n3C)C[C@@H]2N1C,3.4 µM (inactive),2.99 µM (inactive),3.89 µM (inactive),3.82 µM (inactive),4.28 µM (inactive),4.57 µM (inactive),–,4.55 µM (inactive),4.02 µM (inactive),4.39 µM (inactive),3.61 µM (inactive),4.09 µM (inactive),5.15 µM (inactive),4.33 µM (inactive),3.89 µM (inactive),4.33 µM (inactive),3.64 µM (inactive),3.72 µM (inactive),–,4.37 µM (inactive)
Cc1nc(C)c(C(=O)NNC(=O)c2ccccc2)cc1C(=O)NNC(=O)c1ccccc1,> 100 µM (inactive),> 10 µM (inactive),> 100 µM (inactive),> 100 µM (inactive),> 100 µM (inactive),> 10 µM (inactive),> 10 µM (inactive),> 100 µM (inactive),> 100 µM (inactive),> 100 µM (inactive),> 100 µM (inactive),> 100 µM (inactive),–,> 100 µM (inactive),> 100 µM (inactive),> 100 µM (inactive),> 100 µM (inactive),> 100 µM (inactive),> 100 µM (inactive),> 100 µM (inactive)

# — ChEMBL document CHEMBL1201862, “PubChem BioAssay data set” (2004)
